According to US12186283B2, “Bismuth-thiol compositions and methods of use” (Microbion Corporation, priority 2018, dated 2025):
≈ marks a conversion by molar mass, not a printed value.

Columns and labels:
[1] = tested on: Burkholderia spp. (B. cepacia complex); assay: MIC against CF isolates (Example 5); assay type: cell-based; settings: Table 4A
S. aureus ATCC 29213 [2] = settings: control strain ATCC 29213 S. aureus; per CLSI M100-S24 or provided by Microbion; cited from earlier work
E. coli ATCC 25922 = settings: control strain ATCC 25922 E. coli; per CLSI M100-S24 or provided by Microbion; cited from earlier work
S. aureus ATCC 29213 [3] = assay: Broth microdilution MIC, ATCC QC organism (Example 12); assay type: cell-based, Staphylococcus aureus; settings: S. aureus ATCC 29213, QC organism
Description: The in vitro activity of BisEDT and two additional bismuth-thiol investigational agents (MB-2B and MB-6) was determined for isolates of Escherichia coli, Klebsiella pneumoniae, Pseudomonas aeruginosa and Acinetobacter baumannii characterized for extended-spectrum β-lactamases (ESBL) and/or carbapenem resistance. In addition, vancomycin-intermediate Staphylococcus aureus (VISA) were evaluated. The majority of the isolates tested in the current study were multidrug-resistant (MDR) as defined by resistance to at least three different antibiotic classes. Susceptibility to the investigational compounds and relevant comparators was determined by broth microdilution conducted in accordance with guidelines from the Clinical and Laboratory Standards Institute (CLSI; 2,3).

[4] = tested on: vancomycin-intermediate Staphylococcus aureus (VISA); assay: Broth microdilution MIC (Example 12)
S. aureus ATCC 29213 [5] = settings: S. aureus ATCC 29213, QC organism; cited from earlier work
Acinetobacter baumannii = assay: Broth microdilution MIC (Example 12)
Pseudomonas aeruginosa [6] = settings: P. aeruginosa ATCC 27853, QC organism; cited from earlier work
Escherichia coli [7] = settings: E. coli ATCC 25922, QC organism; cited from earlier work
Escherichia coli [8] = assay: Broth microdilution MIC (Example 12)
Klebsiella pneumoniae = assay: Broth microdilution MIC (Example 12)
Pseudomonas aeruginosa [9] = assay: Broth microdilution MIC (Example 12)
[10] = Staphylococcus aureus NRS 1 (hVISA)
[11] = Staphylococcus aureus NRS 24 (hVISA)

## NCC[C@H](O)C(=O)N[C@@H]1C[C@H](N)[C@@H](O[C@H]2O[C@H](CN)[C@@H](O)[C@H](O)[C@H]2O)[C@H](O)[C@H]1O[C@H]1O[C@H](CO)[C@@H](O)[C@H](N)[C@H]1O [Amikacin]
[1]; strain AU197, B. cenocepacia (B cepacia complex)
  MIC: > 64 µg/mL
[1]; strain BC5b, B. multivorans (B cepacia complex)
  MIC: > 64 µg/mL
[1]; strain BC15, B. cenocepacia (B cepacia complex)
  MIC: > 64 µg/mL
[1]; strain BC17, B. cepacia (B cepacia complex)
  MIC: > 64 µg/mL
S. aureus ATCC 29213 [2]
  Expected MIC: acceptable range: 1 to 4 µg/mL
  Expected MIC: goal: 2 µg/mL
E. coli ATCC 25922
  Expected MIC: acceptable range: 0.5 to 4 µg/mL
  Expected MIC: goal: 1 to 2 µg/mL

## CCCCCCCCCC(=O)NC(Cc1c[nH]c2ccccc12)C(=O)NC(CC(N)=O)C(=O)NC(CC(=O)O)C(=O)NC1C(=O)NCC(=O)NC(CCCN)C(=O)NC(CC(=O)O)C(=O)NC(C)C(=O)NC(CC(=O)O)C(=O)NCC(=O)NC(CO)C(=O)NC(C(C)CC(=O)O)C(=O)NC(CC(=O)c2ccccc2N)C(=O)OC1C (centres unmarked) [DAP]
S. aureus ATCC 29213 [3]
  MIC: 0.5 µg/mL (≈ 0.309 µM)
[4]; [10]
  MIC: 1 µg/mL (≈ 0.617 µM)
[4]; Staphylococcus aureus NRS 2
  MIC: 0.25 µg/mL (≈ 0.154 µM)
[4]; Staphylococcus aureus NRS 3
  MIC: 1 µg/mL (≈ 0.617 µM)
[4]; Staphylococcus aureus NRS 4
  MIC: 0.5 µg/mL (≈ 0.309 µM)
[4]; Staphylococcus aureus NRS 13
  MIC: 2 µg/mL (≈ 1.23 µM)
[4]; Staphylococcus aureus NRS 18
  MIC: 0.5 µg/mL (≈ 0.309 µM)
[4]; Staphylococcus aureus NRS 22
  MIC: 2 µg/mL (≈ 1.23 µM)
[4]; [11]
  MIC: 0.5 µg/mL (≈ 0.309 µM)
[4]; Staphylococcus aureus NRS 27
  MIC: 0.25 µg/mL (≈ 0.154 µM)
S. aureus ATCC 29213 [5]
  MIC, QC range: (0.12-1) μg/mL

## C[C@H]1COc2c(N3CCN(C)CC3)c(F)cc3c(=O)c(C(=O)O)cn1c23 [LVX]
Acinetobacter baumannii; Acinetobacter baumannii CDC 273, ESBL/OXA
  MIC: >8 µg/mL
Acinetobacter baumannii; Acinetobacter baumannii CDC 274, ESBL/OXA
  MIC: 8 µg/mL (≈ 22.1 µM)
Acinetobacter baumannii; Acinetobacter baumannii CDC 275, ESBL/OXA
  MIC: 4 µg/mL (≈ 11.1 µM)
Acinetobacter baumannii; Acinetobacter baumannii CDC 277, ESBL/OXA
  MIC: 8 µg/mL (≈ 22.1 µM)
Acinetobacter baumannii; Acinetobacter baumannii CDC 284, ESBL/OXA
  MIC: 8 µg/mL (≈ 22.1 µM)
Acinetobacter baumannii; Acinetobacter baumannii CDC 307, OXA
  MIC: 8 µg/mL (≈ 22.1 µM)
Acinetobacter baumannii; Acinetobacter baumannii CDC 308, ESBL/OXA
  MIC: 4 µg/mL (≈ 11.1 µM)
Acinetobacter baumannii; Acinetobacter baumannii CDC 311, OXA
  MIC: 2 µg/mL (≈ 5.53 µM)
Acinetobacter baumannii; Acinetobacter baumannii CDC 312, OXA
  MIC: 2 µg/mL (≈ 5.53 µM)
Acinetobacter baumannii; Acinetobacter baumannii CDC 313, ESBL/OXA
  MIC: 2 µg/mL (≈ 5.53 µM)
Acinetobacter baumannii; Acinetobacter baumannii NCTC 13304, OXA
  MIC: 1 µg/mL (≈ 2.77 µM)
Pseudomonas aeruginosa [6]
  MIC, QC range: (0.5-4) μg/mL
Escherichia coli [7]
  MIC, QC range: (0.008-0.06) μg/mL
S. aureus ATCC 29213 [3]
  MIC: 0.06 µg/mL (≈ 0.166 µM)
Escherichia coli [8]; E. coli ATCC 25922, QC organism
  MIC: ≤0.008 µg/mL
Escherichia coli [8]; E. coli ATCC 35218, QC organism
  MIC: ≤0.008 µg/mL
Escherichia coli [8]; Escherichia coli ATCC 35218, ESBL
  MIC: ≤0.008 µg/mL
Escherichia coli [8]; Escherichia coli ATCC BAA-2471, NDM
  MIC: >8 µg/mL
Escherichia coli [8]; Escherichia coli CDC 114, ESBL/KPC
  MIC: 4 µg/mL (≈ 11.1 µM)
Escherichia coli [8]; Escherichia coli CDC 118, ESBL/NDM
  MIC: 8 µg/mL (≈ 22.1 µM)
Escherichia coli [8]; Escherichia coli CDC 435, NDM
  MIC: >8 µg/mL
Escherichia coli [8]; Escherichia coli CDC 451, KPC
  MIC: >8 µg/mL
Escherichia coli [8]; Escherichia coli CDC 503, ESBL/NDM
  MIC: >8 µg/mL
Escherichia coli [8]; Escherichia coli MMX 5745, KPC
  MIC: 8 µg/mL (≈ 22.1 µM)
Escherichia coli [8]; Escherichia coli MMX 5755, ESBL
  MIC: 8 µg/mL (≈ 22.1 µM)
Escherichia coli [8]; Escherichia coli MMX 5756, ESBL
  MIC: 4 µg/mL (≈ 11.1 µM)
Escherichia coli [8]; Escherichia coli MMX 5758, ESBL
  MIC: 8 µg/mL (≈ 22.1 µM)
Klebsiella pneumoniae; K. pneumoniae ATCC BAA-1705, QC organism
  MIC: >8 µg/mL
Klebsiella pneumoniae; Klebsiella pneumoniae ATCC BAA-1705, ESBL/KPC
  MIC: >8 µg/mL
Klebsiella pneumoniae; Klebsiella pneumoniae CDC 112, KPC
  MIC: 4 µg/mL (≈ 11.1 µM)
Klebsiella pneumoniae; Klebsiella pneumoniae CDC 113, ESBL/KPC
  MIC: 4 µg/mL (≈ 11.1 µM)
Klebsiella pneumoniae; Klebsiella pneumoniae CDC 115, ESBL/KPC
  MIC: >8 µg/mL
Klebsiella pneumoniae; Klebsiella pneumoniae CDC 120, ESBL/KPC
  MIC: >8 µg/mL
Klebsiella pneumoniae; Klebsiella pneumoniae CDC 126, ESBL/KPC
  MIC: 0.015 µg/mL (≈ 0.0415 µM)
Klebsiella pneumoniae; Klebsiella pneumoniae CDC 129, ESBL/KPC
  MIC: >8 µg/mL
Klebsiella pneumoniae; Klebsiella pneumoniae CDC 135, ESBL/VIM
  MIC: >8 µg/mL
Klebsiella pneumoniae; Klebsiella pneumoniae CDC 138, ESBL/NDM
  MIC: >8 µg/mL
Klebsiella pneumoniae; Klebsiella pneumoniae CDC 158, ESBL/NDM/OXA
  MIC: 4 µg/mL (≈ 11.1 µM)
Klebsiella pneumoniae; Klebsiella pneumoniae MMX 9029, ESBL
  MIC: 0.12 µg/mL (≈ 0.332 µM)
[4]; [10]
  MIC: 4 µg/mL (≈ 11.1 µM)
[4]; Staphylococcus aureus NRS 2
  MIC: 4 µg/mL (≈ 11.1 µM)
[4]; Staphylococcus aureus NRS 3
  MIC: >8 µg/mL
[4]; Staphylococcus aureus NRS 4
  MIC: 4 µg/mL (≈ 11.1 µM)
[4]; Staphylococcus aureus NRS 13
  MIC: 0.12 µg/mL (≈ 0.332 µM)
[4]; Staphylococcus aureus NRS 18
  MIC: 4 µg/mL (≈ 11.1 µM)
[4]; Staphylococcus aureus NRS 22
  MIC: 8 µg/mL (≈ 22.1 µM)
[4]; [11]
  MIC: >8 µg/mL
[4]; Staphylococcus aureus NRS 27
  MIC: 8 µg/mL (≈ 22.1 µM)
S. aureus ATCC 29213 [5]
  MIC, QC range: (0.06-0.5) μg/mL
Pseudomonas aeruginosa [9]; P. aeruginosa ATCC 27853, QC organism
  MIC: 0.5 µg/mL (≈ 1.38 µM)
Pseudomonas aeruginosa [9]; Pseudomonas aeruginosa CDC 230, VIM/OXA
  MIC: 8 µg/mL (≈ 22.1 µM)
Pseudomonas aeruginosa [9]; Pseudomonas aeruginosa CDC 231, KPC/OXA
  MIC: >8 µg/mL
Pseudomonas aeruginosa [9]; Pseudomonas aeruginosa CDC 241, IMP/OXA
  MIC: 8 µg/mL (≈ 22.1 µM)
Pseudomonas aeruginosa [9]; Pseudomonas aeruginosa CDC 246, NDM/OXA
  MIC: >8 µg/mL
Pseudomonas aeruginosa [9]; Pseudomonas aeruginosa CDC 250, NDM/OXA
  MIC: >8 µg/mL
Pseudomonas aeruginosa [9]; Pseudomonas aeruginosa CDC 356, KPC
  MIC: 0.12 µg/mL (≈ 0.332 µM)
Pseudomonas aeruginosa [9]; Pseudomonas aeruginosa CDC 439, IMP
  MIC: 8 µg/mL (≈ 22.1 µM)
Pseudomonas aeruginosa [9]; Pseudomonas aeruginosa CDC 444, VIM
  MIC: 8 µg/mL (≈ 22.1 µM)
Pseudomonas aeruginosa [9]; Pseudomonas aeruginosa CDC 457, VIM
  MIC: >8 µg/mL
Pseudomonas aeruginosa [9]; Pseudomonas aeruginosa CDC 516, KPC/AmpC
  MIC: 0.25 µg/mL (≈ 0.692 µM)
Pseudomonas aeruginosa [9]; Pseudomonas aeruginosa CDC 518, KPC/AmpC
  MIC: >8 µg/mL
